“And” between values parts separate entries of the source, which are not always exact repeats. Equal values may be shown once. Inconclusive results and toxic doses are left out.
System: BDF1 mice, L1210 terephthalanilide-resistant leukemia ip, survival T/C
Experiment: NCI In Vivo Anticancer Drug Screen. Data for tumor model L1210 Leukemia resistant to A Terephthalanilide; NSC 38280 (intraperitoneal) in B6D2F1 (BDF1) mice
Details: endpoint: mean survival time, higher = longer survival
Protocol: The antitumor activity of compounds was measured in mice bearing transplantable tumors. Survival or tumor size were measured and the results are expressed as the measurement made in the treated group (T) divided by the measurement made in the vehicle treated control group (C). The tumor model used in this assay is L1210 Leukemia resistant to A Terephthalanilide; NSC 38280 (intraperitoneal) in B6D2F1 (BDF1) mice

[1] = dose: 62.5 mg/kg/injection, schedule: Q01DX010 (ip), vehicle: saline
[2] = dose: 125.0 mg/kg/injection, schedule: Q01DX010 (ip), vehicle: saline
[3] = dose: 3.13 mg/kg/injection, schedule: Q01DX010 (ip), vehicle: saline
[4] = dose: 6.25 mg/kg/injection, schedule: Q01DX010 (ip), vehicle: saline
[5] = dose: 12.5 mg/kg/injection, schedule: Q01DX010 (ip), vehicle: saline
[6] = dose: 25.0 mg/kg/injection, schedule: Q01DX010 (ip), vehicle: saline
[7] = dose: 50.0 mg/kg/injection, schedule: Q01DX010 (ip), vehicle: saline
[8] = dose: 50.0 mg/kg/injection, schedule: Q01DX Z (ip), vehicle: saline
[9] = dose: 12.5 mg/kg/injection, schedule: Q01DX010 (sc), vehicle: steriod suspending solution
[10] = dose: 25.0 mg/kg/injection, schedule: Q01DX010 (sc), vehicle: steriod suspending solution
[11] = dose: 50.0 mg/kg/injection, schedule: Q01DX010 (sc), vehicle: steriod suspending solution
[12] = dose: 100.0 mg/kg/injection, schedule: Q01DX010 (sc), vehicle: steriod suspending solution
[13] = dose: 100.0 mg/kg/injection, schedule: Q01DX010 (ip), vehicle: saline

O=C(Nc1ccc(NC(=O)Nc2cccc(C3=NCCN3)c2)cc1)Nc1cccc(C2=NCCN2)c1
T/C (dose: 60.0 mg/kg/injection, schedule: Q01DX Z (ip), vehicle: carboxymethylcellulose (CMC)): 96 % of control
T/C (dose: 120.0 mg/kg/injection, schedule: Q01DX Z (ip), vehicle: carboxymethylcellulose (CMC)): 106 % of control
T/C (dose: 240.0 mg/kg/injection, schedule: Q01DX Z (ip), vehicle: carboxymethylcellulose (CMC)): 106 % of control

CCCCNc1ncnc2c1cnn2C
T/C (dose: 31.3 mg/kg/injection, schedule: Q01DX010 (ip), vehicle: saline): 100 % of control
T/C [1]: 105 % of control and 108 % of control
T/C [2]: 89 % of control

O=C(O)CCCc1ccc(N(CCCl)CCCl)cc1
T/C (dose: 2.0 mg/kg/injection, schedule: Q01DX Z (ip), vehicle: carboxymethylcellulose (CMC)): 101 % of control
T/C (dose: 3.0 mg/kg/injection, schedule: Q01DX Z (ip), vehicle: carboxymethylcellulose (CMC)): 106 % of control
T/C (dose: 4.0 mg/kg/injection, schedule: Q01DX Z (ip), vehicle: carboxymethylcellulose (CMC)): 112 % of control
T/C (dose: 5.0 mg/kg/injection, schedule: Q01DX Z (ip), vehicle: carboxymethylcellulose (CMC)): 119 % of control
T/C (dose: 6.25 mg/kg/injection, schedule: Q01DX Z (ip), vehicle: carboxymethylcellulose (CMC)): 115 % of control
T/C (dose: 12.5 mg/kg/injection, schedule: Q01DX Z (ip), vehicle: carboxymethylcellulose (CMC)): 118 % of control

CS(=O)(=O)OCCN(CCOS(C)(=O)=O)c1ccc(N=O)cc1
T/C (dose: 0.5 mg/kg/injection, schedule: Q01DX010 (ip), vehicle: saline): 122 % of control
T/C (dose: 1.0 mg/kg/injection, schedule: Q01DX010 (ip), vehicle: saline): 115 % of control
T/C (dose: 2.0 mg/kg/injection, schedule: Q01DX010 (ip), vehicle: saline): 98 % of control
T/C (dose: 125.0 micrograms/kg/injection, schedule: Q01DX010 (ip), vehicle: saline): 118 % of control
T/C (dose: 1000.0 micrograms/kg/injection, schedule: Q01DX010 (ip), vehicle: saline): 116 % of control

C[C@H]1C(=O)O[C@@H]2CCN3CC=C(COC(=O)[C@](C)(O)[C@@]1(C)O)[C@H]23
T/C [3]: 97 % of control
T/C [4]: 102 % of control
T/C [5]: 97 % of control and 106 % of control
T/C [6]: 103 % of control and 106 % of control
T/C (dose: 25.0 mg/kg/injection, schedule: Q01DX Z (ip), vehicle: carboxymethylcellulose (CMC)): 107 % of control
T/C [7]: 100 % of control
T/C (dose: 50.0 mg/kg/injection, schedule: Q01DX Z (ip), vehicle: carboxymethylcellulose (CMC)): 100 % of control
T/C (dose: 100.0 mg/kg/injection, schedule: Q01DX Z (ip), vehicle: carboxymethylcellulose (CMC)): 119 % of control
T/C (dose: 200.0 mg/kg/injection, schedule: Q01DX Z (ip), vehicle: carboxymethylcellulose (CMC)): 161 % of control

O=c1cn[nH]c(=O)[nH]1
T/C (dose: 62.0 mg/kg/injection, schedule: Q01DX Z (ip), vehicle: carboxymethylcellulose (CMC)): 101 % of control
T/C [1]: 97 % of control and 101 % of control
T/C [2]: 97 % of control and 105 % of control
T/C (dose: 125.0 mg/kg/injection, schedule: Q01DX Z (ip), vehicle: carboxymethylcellulose (CMC)): 101 % of control
T/C (dose: 250.0 mg/kg/injection, schedule: Q01DX010 (ip), vehicle: saline): 106 % of control and 113 % of control
T/C (dose: 250.0 mg/kg/injection, schedule: Q01DX Z (ip), vehicle: carboxymethylcellulose (CMC)): 106 % of control
T/C (dose: 500.0 mg/kg/injection, schedule: Q01DX010 (ip), vehicle: saline): 123 % of control and 115 % of control
T/C (dose: 500.0 mg/kg/injection, schedule: Q01DX Z (ip), vehicle: carboxymethylcellulose (CMC)): 113 % of control

Nc1ncnc2c1ccn2C1OC(CO)C(O)C1O (configuration not stated)
T/C (dose: 0.23 mg/kg/injection, schedule: Q01DX Z (ip), vehicle: saline): 98 % of control
T/C (dose: 0.47 mg/kg/injection, schedule: Q01DX Z (ip), vehicle: saline): 113 % of control
T/C (dose: 0.93 mg/kg/injection, schedule: Q01DX Z (ip), vehicle: saline): 109 % of control
T/C (dose: 1.87 mg/kg/injection, schedule: Q01DX Z (ip), vehicle: saline): 116 % of control
T/C (dose: 2.5 mg/kg/injection, schedule: Q01DX Z (ip), vehicle: carboxymethylcellulose (CMC)): 103 % of control

CSc1ncnc2c1ncn2C1OC(CO)C(O)C1O (configuration not stated)
T/C (dose: 4.0 mg/kg/injection, schedule: Q01DX010 (ip), vehicle: saline): 105 % of control
T/C (dose: 5.5 mg/kg/injection, schedule: Q01DX Z (ip), vehicle: saline): 117 % of control
T/C (dose: 8.0 mg/kg/injection, schedule: Q01DX010 (ip), vehicle: saline): 116 % of control
T/C (dose: 15.0 mg/kg/injection, schedule: Q01DX010 (ip), vehicle: saline): 151 % of control
T/C (dose: 16.0 mg/kg/injection, schedule: Q01DX010 (ip), vehicle: saline): 122 % of control
T/C (dose: 20.0 mg/kg/injection, schedule: Q01DX010 (ip), vehicle: saline): 162 % of control
T/C (dose: 37.5 mg/kg/injection, schedule: Q01DX Z (ip), vehicle: saline): 154 % of control
T/C [8]: 101 % of control
T/C (dose: 75.0 mg/kg/injection, schedule: Q01DX Z (ip), vehicle: saline): 88 % of control

CC(=O)O[C@]1(C(C)=O)CC[C@H]2[C@@H]3C[C@H](C)C4=CC(=O)C=C[C@]4(C)[C@@]3(F)[C@@H](O)C[C@@]21C
T/C [9]: 102 % of control
T/C [10]: 98 % of control
T/C [11]: 98 % of control
T/C (dose: 50.0 mg/kg/injection, schedule: Q01DX Z (sc), vehicle: steriod suspending solution): 102 % of control
T/C (dose: 75.0 mg/kg/injection, schedule: Q01DX Z (sc), vehicle: steriod suspending solution): 104 % of control
T/C [12]: 91 % of control
T/C (dose: 100.0 mg/kg/injection, schedule: Q01DX Z (sc), vehicle: steriod suspending solution): 102 % of control
T/C (dose: 150.0 mg/kg/injection, schedule: Q01DX Z (sc), vehicle: steriod suspending solution): 102 % of control

Nc1nc2n[nH]nc2c(=O)[nH]1
T/C (dose: 6.25 mg/kg/injection, schedule: Q01DX Z (ip), vehicle: water): 106 % of control
T/C (dose: 12.5 mg/kg/injection, schedule: Q01DX Z (ip), vehicle: water): 113 % of control
T/C (dose: 400.0 mg/kg/injection, schedule: Q01DX Z (ip), vehicle: water): 95 % of control

C[C@]12C=CC(=O)C=C1CC[C@@H]1[C@@H]2[C@@H](O)C[C@@]2(C)[C@H]1CC[C@]2(O)C(=O)CO
T/C [9]: 100 % of control
T/C [10]: 100 % of control
T/C [11]: 98 % of control
T/C [12]: 95 % of control

O=C(Nc1ccc(C2=NCCN2)cc1)c1ccc(C(=O)Nc2ccc(C3=NCCN3)cc2)c(F)c1
T/C (dose: 22.5 mg/kg/injection, schedule: Q01DX010 (ip), vehicle: saline): 100 % of control and 101 % of control
T/C (dose: 45.0 mg/kg/injection, schedule: Q01DX010 (ip), vehicle: saline): 101 % of control and 102 % of control
T/C (dose: 90.0 mg/kg/injection, schedule: Q01DX010 (ip), vehicle: saline): 103 % of control and 106 % of control
T/C (dose: 180.0 mg/kg/injection, schedule: Q01DX010 (ip), vehicle: saline): 100 % of control

O=C(Nc1ccc(C2=NCCN2)cc1)c1ccc(C(=O)Nc2ccc(C3=NCCN3)cc2)cc1
T/C (dose: 4.0 mg/kg/injection, schedule: Q01DX010 (ip), vehicle: other): 112 % of control and 115 % of control
T/C (dose: 8.0 mg/kg/injection, schedule: Q01DX010 (ip), vehicle: other): 123 % of control and 114 % of control
T/C (dose: 16.0 mg/kg/injection, schedule: Q01DX010 (ip), vehicle: other): 112 % of control and 117 % of control
T/C (dose: 32.0 mg/kg/injection, schedule: Q01DX010 (ip), vehicle: other): 114 % of control and 117 % of control
T/C (dose: 64.0 mg/kg/injection, schedule: Q01DX010 (ip), vehicle: other): 103 % of control and 110 % of control

CS(=O)(=O)OCCC(=O)N1CCN(C(=O)CCOS(C)(=O)=O)CC1
T/C [5]: 106 % of control and 109 % of control
T/C [6]: 120 % of control
T/C [7]: 107 % of control
T/C [13]: 120 % of control

CCCNc1ncnc2[nH]ncc12
T/C [3]: 92 % of control and 103 % of control
T/C [4]: 96 % of control and 108 % of control
T/C [5]: 95 % of control and 101 % of control
T/C (dose: 12.5 mg/kg/injection, schedule: Q01DX Z (ip), vehicle: saline): 115 % of control
T/C [6]: 92 % of control and 106 % of control
T/C [8]: 93 % of control

CCN(CC)CCNc1ccc(C)c2sc3ccccc3c(=O)c12
T/C [6]: 101 % of control and 105 % of control
T/C (dose: 25.0 mg/kg/injection, schedule: Q01DX Z (ip), vehicle: water): 111 % of control
T/C [7]: 105 % of control and 111 % of control
T/C [13]: 111 % of control
T/C (dose: 100.0 mg/kg/injection, schedule: Q01DX Z (ip), vehicle: water): 115 % of control
